The values below come from PubChem BioAssay AID328 (DTP/NCI, 2004).

Several values for one entry are separate records, joined by “and”; a condition that tells them apart may be missing. Equal values may be shown once. Toxic doses and inconclusive results are not listed.

This test has as its system BDF1 mice, P388 leukemia ip, median survival T/C. The test is described as follows: NCI In Vivo Anticancer Drug Screen. Data for tumor model P388 Leukemia (intraperitoneal) in B6D2F1 (BDF1) mice. The settings on record: endpoint: median survival time, higher = longer survival. The essentials: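 Reported as T/C, where T is the survival measurement in dosed animals and C the same measurement in vehicle controls.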

The mark [1] stands for this setting: dose: 20.0 mg/kg/injection, schedule: Q01DX010 (ip), vehicle: saline.
[2] abbreviates: dose: 50.0 mg/kg/injection, schedule: Q04DX003 (ip), vehicle: saline.
[3] abbreviates: dose: 100.0 mg/kg/injection, schedule: Q04DX003 (ip), vehicle: saline.
[4] abbreviates: dose: 100.0 mg/kg/injection, schedule: Q04DX003 (ip), vehicle: saline with Tween-80.
[5] abbreviates: dose: 200.0 mg/kg/injection, schedule: Q04DX003 (ip), vehicle: saline with Tween-80.
Where [6] appears, read: dose: 400.0 mg/kg/injection, schedule: Q04DX003 (ip), vehicle: saline with Tween-80.
[7] abbreviates: dose: 100.0 mg/kg/injection, schedule: Q04DX003 (ip), vehicle: other.
[8] abbreviates: dose: 200.0 mg/kg/injection, schedule: Q04DX003 (ip), vehicle: other.
Where [9] appears, read: dose: 400.0 mg/kg/injection, schedule: Q04DX003 (ip), vehicle: other.
The mark [10] stands for this setting: dose: 50.0 mg/kg/injection, schedule: Q01DX009 (ip), vehicle: saline with Tween-80.
Where [11] appears, read: dose: 100.0 mg/kg/injection, schedule: Q01DX009 (ip), vehicle: saline with Tween-80.
[12] abbreviates: dose: 100.0 mg/kg/injection, schedule: Q01DX009 (ip), vehicle: Klucel (hydroxypropylcellulose) (HPC).
The mark [13] stands for this setting: dose: 200.0 mg/kg/injection, schedule: Q01DX009 (ip), vehicle: Klucel (hydroxypropylcellulose) (HPC).
The mark [14] stands for this setting: dose: 200.0 mg/kg/injection, schedule: Q01DX009 (ip), vehicle: saline with Tween-80.
Setting [15] is: dose: 400.0 mg/kg/injection, schedule: Q01DX009 (ip), vehicle: saline with Tween-80.
Setting [16] is: dose: 100.0 mg/kg/injection, schedule: Q04DX003 (ip), vehicle: Klucel (hydroxypropylcellulose) (HPC).

Regarding `COc1cc2c3cc1Oc1c(OC)c(OC)cc4c1C(Cc1cc5c(c(c1)Oc1ccc(cc1)CC3N(C)CC2)OCO5)N(C)CC4` (configuration not stated), the T/C runs as follows: (dose: 5.0 mg/kg/injection, schedule: Q01DX010 (ip), vehicle: saline) 90 % of control; under setting [1], 104 % of control; (dose: 40.0 mg/kg/injection, schedule: Q01DX010 (ip), vehicle: saline) 95 % of control.
For `CN(C)P1(=O)OCCN1N` (configuration not stated), the T/C is, setting by setting: under setting [2], 109 % of control; under setting [3], 109 % of control; (dose: 200.0 mg/kg/injection, schedule: Q04DX003 (ip), vehicle: saline) 104 % of control.
For the compound `N#CC(/C=C/c1ccccc1)Nc1ccccc1` (configuration not stated), the T/C is 104 % of control under setting [4], 100 % of control under setting [5] and 100 % of control under setting [6].
For the compound `CCCCCCCC(=O)Nc1ccc(C)cc1C`, the T/C is 95 % of control under setting [7], 104 % of control under setting [8] and 95 % of control under setting [9].
For the compound `O=C(/C=C/c1ccc(OCc2ccccc2)cc1)c1cccs1`, the T/C is 98 % of control under setting [10] and 92 % of control under setting [11].
Regarding `COC1C(OC(N)=O)C(O)C(Oc2ccc3c(O)c(NC(=O)c4ccc(O)c(CC=C(C)C)c4)c(=O)oc3c2C)OC1(C)C` (configuration not stated), the T/C (dose: 50.0 mg/kg/injection, schedule: Q01DX009 (ip), vehicle: Klucel (hydroxypropylcellulose) (HPC)) was 121 % of control; the T/C under setting [12] was 111 % of control; the T/C under setting [13] is 121 % of control.
As for `CSc1nnc([N+](=O)[O-])s1`, the T/C is, setting by setting: (dose: 1.56 mg/kg/injection, schedule: Q01DX009 (ip), vehicle: Klucel (hydroxypropylcellulose) (HPC)) 110 % of control; (dose: 3.12 mg/kg/injection, schedule: Q01DX009 (ip), vehicle: Klucel (hydroxypropylcellulose) (HPC)) 100 % of control; (dose: 6.25 mg/kg/injection, schedule: Q01DX009 (ip), vehicle: Klucel (hydroxypropylcellulose) (HPC)) 110 % of control.
For `O=C(CCC(=O)c1cccc([N+](=O)[O-])c1)NNc1ccc([N+](=O)[O-])cc1[N+](=O)[O-]`, the T/C reads like this: under setting [11], 104 % of control; under setting [14], 90 % of control; under setting [15], 95 % of control.
`O=C(Nc1ccc(NC2=NCCN2)cc1)c1ccc(C(=O)Nc2ccc(NC3=NCCN3)cc2)cc1`: the T/C was 165 % of control and 180 % of control (dose: 2.0 mg/kg/injection, schedule: Q01DX010 (ip), vehicle: saline); 260 % of control and 205 % of control (dose: 4.0 mg/kg/injection, schedule: Q01DX010 (ip), vehicle: saline); 260 % of control and 285 % of control (dose: 8.0 mg/kg/injection, schedule: Q01DX010 (ip), vehicle: saline); 105 % of control and 110 % of control (dose: 16.0 mg/kg/injection, schedule: Q01DX010 (ip), vehicle: saline).
For the compound `Cc1ccc(C2(C(=O)O)CCCC2)cc1`, the T/C is, setting by setting: (dose: 65.0 mg/kg/injection, schedule: Q01DX009 (ip), vehicle: Klucel (hydroxypropylcellulose) (HPC)) 103 % of control; (dose: 150.0 mg/kg/injection, schedule: Q01DX009 (ip), vehicle: Klucel (hydroxypropylcellulose) (HPC)) 94 % of control; under setting [14], 91 % of control.
On to `CC1CC=CCC1COC(OCC1CC=CCC1C)C1CC=CCC1C` (configuration not stated), for which the T/C by setting is: under setting [7], 104 % of control; under setting [8], 114 % of control; under setting [9], 119 % of control.
With `C1=NCCCN1`, the T/C runs as follows: (dose: 25.0 mg/kg/injection, schedule: Q04DX003 (ip), vehicle: saline) 100 % of control; under setting [2], 100 % of control; under setting [3], 100 % of control.
Regarding `COC(=O)c1c(C)ccc2c(O)c3c(cc12)C(=O)c1c2c(cc(O)c1C3=O)C1(C)OC(C)(O2)C(O)C(N(C)C)C1O` (configuration not stated), the T/C is, setting by setting: (dose: 70.0 mg/kg/injection, schedule: Q01DX009 (ip), vehicle: Klucel (hydroxypropylcellulose) (HPC)) 150 % of control; (dose: 140.0 mg/kg/injection, schedule: Q01DX009 (ip), vehicle: Klucel (hydroxypropylcellulose) (HPC)) 111 % of control.
For `CCC(=O)O[C@H]1CC[C@H]2[C@@H]3CC[C@H]4CC(=O)[C@H](C)C[C@]4(C)[C@H]3CC[C@]12C`, the T/C under setting [12] is 87 % of control; the T/C under setting [16] is 104 % of control; the T/C under setting [13] was 95 % of control; the T/C (dose: 200.0 mg/kg/injection, schedule: Q04DX003 (ip), vehicle: Klucel (hydroxypropylcellulose) (HPC)) was 100 % of control; the T/C (dose: 400.0 mg/kg/injection, schedule: Q01DX009 (ip), vehicle: Klucel (hydroxypropylcellulose) (HPC)) was 87 % of control; the T/C (dose: 400.0 mg/kg/injection, schedule: Q04DX003 (ip), vehicle: Klucel (hydroxypropylcellulose) (HPC)) was 104 % of control.
In the case of `CC1(O)c2ccccc2-c2nc3ccccc3nc21` (configuration not stated), the T/C reads like this: under setting [11], 104 % of control; under setting [14], 100 % of control; under setting [15], 118 % of control.
Take `CCOC(=O)c1cc(N)c(C(=O)OCC)cc1N`: the T/C by setting is: under setting [10], 99 % of control and 114 % of control; under setting [11], 98 % of control and 108 % of control; under setting [14], 106 % of control; under setting [15], 99 % of control.
For `Nc1ccc(SCc2nc3cccc4c3n2CCC4)cc1`, the T/C was 91 % of control under setting [4], 95 % of control under setting [5] and 95 % of control under setting [6].
As to `CC(=O)c1ccc2ccccc2c1O`, the T/C by setting is: (dose: 100.0 mg/kg/injection, schedule: Q01DX001 (ip), vehicle: other) 90 % of control; under setting [11], 104 % of control; under setting [4], 109 % of control; (dose: 175.0 mg/kg/injection, schedule: Q01DX009 (ip), vehicle: saline with Tween-80) 122 % of control; (dose: 200.0 mg/kg/injection, schedule: Q01DX001 (ip), vehicle: other) 100 % of control; under setting [14], 104 % of control. Also, the T/C runs as follows: under setting [5], 104 % of control; (dose: 400.0 mg/kg/injection, schedule: Q01DX001 (ip), vehicle: other) 95 % of control; under setting [15], 118 % of control; under setting [6], 104 % of control; (dose: 600.0 mg/kg/injection, schedule: Q01DX009 (ip), vehicle: saline with Tween-80) 113 % of control.
As for `COc1cccn(C/C=C(\C)CCC=C(C)C)c1=O`, the T/C was 116 % of control (dose: 25.0 mg/kg/injection, schedule: Q01DX009 (ip), vehicle: saline with Tween-80); 109 % of control under setting [10]; 91 % of control (dose: 50.0 mg/kg/injection, schedule: Q04DX003 (ip), vehicle: saline with Tween-80); 93 % of control (dose: 80.0 mg/kg/injection, schedule: Q01DX009 (ip), vehicle: saline with Tween-80); 100 % of control under setting [4]; 116 % of control (dose: 150.0 mg/kg/injection, schedule: Q01DX009 (ip), vehicle: saline with Tween-80).
`N#Cc1ccc(CC(O)c2ccc(Cl)cc2)cc1` (configuration not stated): the T/C was 108 % of control under setting [10], 89 % of control under setting [11] and 96 % of control under setting [14].
On to `CC(Br)CNC(=O)c1ccc([N+](=O)[O-])cc1` (configuration not stated), for which the T/C is 109 % of control (dose: 25.0 mg/kg/injection, schedule: Q04DX003 (ip), vehicle: Klucel (hydroxypropylcellulose) (HPC)); 109 % of control (dose: 50.0 mg/kg/injection, schedule: Q04DX003 (ip), vehicle: Klucel (hydroxypropylcellulose) (HPC)); 100 % of control under setting [16].
`S=P(N1CCOCC1)(N1CC1)N1CC1`: the T/C was 109 % of control (dose: 2.5 mg/kg/injection, schedule: Q01DX010 (ip), vehicle: saline) and 155 % of control under setting [1].
For the compound `OCCOCCOCCN1CCN(CCCN2c3ccccc3Sc3ccc(C(F)(F)F)cc32)CC1`, the T/C runs as follows: (dose: 0.79 mg/kg/injection, schedule: Q01DX009 (ip), vehicle: saline) 91 % of control; (dose: 6.25 mg/kg/injection, schedule: Q01DX009 (ip), vehicle: saline) 112 % of control.
Take `O=C1NC(c2cccc3c2OCO3)N=C2Oc3ccccc3C=C12` (configuration not stated): the T/C is 98 % of control under setting [10], 93 % of control under setting [11] and 93 % of control under setting [14].
Regarding `CC1(C#N)CCC(CCc2ccccc2)C(=O)C1` (configuration not stated), the T/C reads like this: (dose: 75.0 mg/kg/injection, schedule: Q04DX003 (ip), vehicle: saline) 95 % of control; (dose: 150.0 mg/kg/injection, schedule: Q04DX003 (ip), vehicle: saline) 87 % of control; (dose: 300.0 mg/kg/injection, schedule: Q04DX003 (ip), vehicle: saline) 104 % of control.
